4 compounds from ChEMBL document CHEMBL1121684, “Selective and potent beta 2-adrenoceptor agents within the tetrahydroisoquinoline class: effect of methyl substitution at the benzylic carbon of the 1-(3,4,5-trimethoxybenzyl) group of trimetoquinol” (J Med Chem, 1981) can be followed below.

Molecules are shown by their SMILES.

Experiment [1] has as its target Beta-2 adrenergic receptor (Cavia porcellus) (UniProt Q8K4Z4).
Description: Beta-2 adrenergic receptor activity in guinea pig tracheal smooth muscle
Experiment [2] relates to Beta-1 adrenergic receptor (Cavia porcellus). The note with it: Cardiac atrium.

Sequence of Beta-2 adrenergic receptor (Cavia porcellus) (Q8K4Z4 whole entry, looked up): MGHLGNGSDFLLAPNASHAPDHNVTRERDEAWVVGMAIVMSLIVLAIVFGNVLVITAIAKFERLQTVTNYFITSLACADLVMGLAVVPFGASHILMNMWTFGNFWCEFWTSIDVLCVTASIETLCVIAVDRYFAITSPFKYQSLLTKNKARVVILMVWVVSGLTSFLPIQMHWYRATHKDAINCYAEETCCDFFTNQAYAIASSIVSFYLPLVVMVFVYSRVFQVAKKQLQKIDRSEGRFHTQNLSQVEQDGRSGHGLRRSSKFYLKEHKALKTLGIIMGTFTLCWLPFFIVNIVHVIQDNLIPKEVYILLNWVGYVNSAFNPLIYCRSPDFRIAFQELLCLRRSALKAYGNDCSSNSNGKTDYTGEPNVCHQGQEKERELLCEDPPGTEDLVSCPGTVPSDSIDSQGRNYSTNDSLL

As for `COc1cc(C[C@@H]2NCCc3cc(O)c(O)cc32)cc(OC)c1OC`, in experiment [1], the pD2 turned out to be 8.15.

Regarding `COc1cc([C@@H](C)[C@@H]2NCCc3cc(O)c(O)cc32)cc(OC)c1OC`, the pD2 in experiment [2] worked out at 7.35; in experiment [1], 8.39.

In the case of `COc1cc(C(C)(C)[C@@H]2NCCc3cc(O)c(O)cc32)cc(OC)c1OC`, the pD2 in experiment [1] turned out to be 4.47.

For the compound `COc1cc([C@H](C)[C@@H]2NCCc3cc(O)c(O)cc32)cc(OC)c1OC`, the pD2 was found to be 6.67 in experiment [2] and 7.15 in experiment [1].
